These results are taken from US4214091A, “Antibiotic No. 2-200 and process for producing thereof” (Chugai Seiyaku Kabushiki Kaisha, priority 1977, dated 1980).

Holding throughout (experiment): MIC, GAM agar, anaerobic
Type in all cases: cell-based

For test [1], the system named is Bacteroides fragilis V-6. The settings on record: V6, GAM agar, anaerobic, 37° C., 40 hours, inoculum 10^6/ML, read-out: Minimum inhibitory concentration (MIC). Here is the method: (§1) Minimum inhibitory concentration (MIC) for gram
(§2) Note: incubated at 37° C. for 40 hours on GAM agar medium (product
(§3) of Nippon Seiyaku) using anaerobic incubator. Inoculated with 10^6

Test [2] relates to Bacteroides fragilis V-7. The note with it: V7, GAM agar, anaerobic, 37° C., 40 hours, inoculum 10^6/ML, read-out: Minimum inhibitory concentration (MIC). As to the method:
as §1, §2, §3

Test [3] concerns Bacteroides fragilis V-8. The settings on record: V8, GAM agar, anaerobic, 37° C., 40 hours, inoculum 10^6/ML, read-out: Minimum inhibitory concentration (MIC). As to the method:
as §1, §2, §3

Test [4] deals with Fusobacterium glutinosum 1006. The settings on record: 37° C., 40 hours, inoculum 10^6/ML, read-out: Minimum inhibitory concentration (MIC). As to the method:
as §1, §2, §3

The structures appear in SMILES notation. In brackets after ≈: the same amount, converted by molar mass. Where only a bound is given, the exact number is not on record here.

As for `O=C(Cn1cnnn1)N[C@@H]1C(=O)N2C(C(=O)O)=C(CSc3nncs3)CS[C@H]12` [Ceftezole, reference compound], the MIC is 100 µg/mL (≈ 227 µM) in test [1], 25 µg/mL (≈ 56.8 µM) in test [2], greater than 100 µg/mL in test [3] and 6.25 µg/mL (≈ 14.2 µM) in test [4].
